Consider eleven substances from paper PMC4457826 (PLoS Pathogens, 2015).

The target in one assay is T1, USP7-CTD (Homo sapiens, UniProt Q93009).
T1 construct: USP7-CTD (535–1102); His tag (inferred from nickel-NTA purification; vector p15TV-L); made in house; host or cells: E. coli BL21(DE3)mgk
Kind of assay: GST pull-down, USP7-CTD. The assay is classed as binding. Particulars: for Interaction with USP7-CTD (overlapping GST-ICP0 peptides): GST fusions 250 μg + USP7-CTD 250 μg, 50 mM Tris pH 8.0, 100 mM NaCl, 5 mM DTT, 5% glycerol, overnight 4°C, Coomassie stained gel, Fig 1A/1D, symbols not defined. The method, then: (§1) Fragments representing USP7-CTD Ubl domains were prepared using ligation independent cloning with In-Fusion (Clontech) in p15TV-L. The boundaries of the Ubl domain constructs are Ubl12 (535–776), Ubl123 (535–889), Ubl345 (776–1102), Ubl45 (886–1102) and USP7-CTD (535–1102). Plasmids expressing USP7-NTD, USP7, and myc-USP7 WT (pCANmycUSP7) were described previously. USP7 mutants E759A, D762A, D764A and D762A/D764A in Ubl123 were synthesized (Genscript) and inserted into the pET15b plasmid. USP7 mutants E759A, D762A, D764A, D762A/D764A and D762R/D764R in USP7-CTD were prepared by ACGT Corporation. The D762R/D764R mutant was then sub-cloned into wild-type pCANmycUSP7 for co-IP assays. The mammalian ICP0 expression construct pCI-110 ICP0 was obtained from Roger Everett.
(§2) The ICP0, GMPS and UHRF1 WT and mutant peptides were cloned into pGEX-2TK and expressed in E. coli BL21(DE3). GST-ICP0 594–775 was obtained from Roger Everett. The GST-ICP0 or GST-GMPS or GST-UHRF1 or GST-ICP0 594–775 cell pellets from 500 ml of LB broth were re-suspended with PBS and lysed using sonication. The cleared lysates were applied to 500 μl of equilibrated glutathione-sepharose beads and incubated with rocking for 60 min at 4°C. Unbound proteins were removed by washing with PBS. Bound proteins were eluted with 50 mM Tris pH 8.0 and 100 mM NaCL containing 30 mM reduced glutathione. Equal amounts (250 μg) of the various USP7 proteins were incubated with 250 μg of the GST-ICP0 or GST-GMPS or GST-UHRF1 or GST-ICP0 594–775 peptides in 50 mM Tris pH 8.0, 100 mM NaCl, 5 mM DTT, 5% glycerol, 0.1 mM Benzamidine and 0.05 mM PMSF, applied to equilibrated glutathione-sepharose beads and incubated overnight with rocking at 4°C. After extensive washing, bound proteins were eluted with 50 mM Tris pH 8.0 and 100 mM NaCl containing 30 mM reduced glutathione.

Another assay concerns FL-USP7. As to the kind of experiment: GST pull-down, USP7-FL. The assay is classed as binding, human. As to conditions: GST fusions 250 μg + USP7 250 μg, 50 mM Tris pH 8.0, 100 mM NaCl, 5 mM DTT, 5% glycerol, overnight 4°C; Coomassie stained gel; Fig 1A/1C; symbols not defined. The protocol: The USP7 binding region is found within ICP0 residues 594–633 and mutagenesis studies have shown that K620 is essential for the interaction. In order to facilitate crystallization and structure determination, we set out to identify a shorter peptide that is capable of binding to USP7. To this end, a series of overlapping GST-ICP0 fusions (591–605, 595–609, 599–613, 603–617, 607–621, 611–625, 615–629, 619–633) were prepared (see Fig 1A for sequence details) and used in GST pull-down assays. […] Overall, our GST pull-down assays identified ICP0 residues between 619 and 629 as important mediators of USP7 binding in agreement with a previous study.
Next we determined which region of USP7-CTD interacted with the ICP0 615–629 peptide. FL-USP7, USP7-CTD as well as Ubl12, Ubl123, Ubl345 and Ubl45 (Fig 1B) were used as prey in GST pull-down assays using GST-ICP0 615–629. FL-USP7 and USP7-CTD were used as positive controls while GST alone and USP7-NTD were used as negative controls.
as §2

For a further assay, the system named is USP7-CTD mutant D764A. As to the kind of experiment: GST pull-down, USP7-CTD D764A. The assay is classed as binding, human. The protocol: as §1
The ICP0, GMPS and UHRF1 WT and mutant peptides were cloned into pGEX-2TK and expressed in E. coli BL21(DE3). GST-ICP0 594–775 was obtained from Roger Everett. The GST-ICP0 or GST-GMPS or GST-UHRF1 or GST-ICP0 594–775 cell pellets from 500 ml of LB broth were re-suspended with PBS and lysed using sonication. The cleared lysates were applied to 500 μl of equilibrated glutathione-sepharose beads and incubated with rocking for 60 min at 4°C. Unbound proteins were removed by washing with PBS. Bound proteins were eluted with 50 mM Tris pH 8.0 and 100 mM NaCL containing 30 mM reduced glutathione. […]

Assay [1] has as its system USP7-CTD mutant D762A/D764A. As to the kind of experiment: GST pull-down, USP7-CTD D762A/D764A. It is filed as binding, human. The protocol:
as §1, §2

The test system of a further assay is USP7-CTD mutant D762A. Kind of assay: GST pull-down, USP7-CTD D762A. It is filed as binding, human. The method, then:
as §1, §2

In the next assay the test system is myc-tagged WT USP7. Kind of assay: Co-immunoprecipitation with myc-tagged WT USP7 from 293T cells. It is filed as cell-based, human. Particulars: anti-myc IP, endogenous protein, Western blot, Fig 5B. The method, then: (§3) 293T cells were grown in Dulbecco’s modified Eagle’s medium (DMEM) (Gibco) with 10% fetal calf serum. 293T cells at 70% confluence in a 10-cm-diameter dish were transfected with 10 μg pCANmycUSP7 expressing WT USP7 or D762R/D764R (MRGR) USP7 or with pcDNA3.1 (negative control), in each case using 20 μl PolyJet (SignaGen Laboratories) transfection reagent. Cells were transferred to a 15-cm-diameter dish 24 h post-transfection and harvested 48 h post-transfection. For experiments on USP7-ICP0 interactions, 293T cells were co-transfected with 1 μg pCANmycUSP7 expressing WT or D762R/D764R (MRGR) USP7 and either 1 μg pCI-110 ICP0 or 1 μg pcDNA3.1. For controls lacking USP7, 1 μg pCI-110 ICP0 was co-transfected with 1 μg pcDNA3.1. In each case 4 μl PolyJet (SignaGen Laboratories) transfection reagent was used.
Protein samples were subjected to SDS-PAGE and transferred to nitrocellulose. […]
293T cells transfected as described above were washed in phosphate-buffered saline (PBS) and lysed on ice for 45 min in a 4x volume of RIPA buffer (50 mM Tris-HCl [pH 8], 150 mM NaCl, 0.1% sodium deoxycholate, 0.5% NP-40) with complete protease inhibitors (Sigma P8340), followed by centrifugation. […] Immunoprecipitated proteins were separated by SDS-PAGE and analyzed by Western blotting, as described above.

The subject of assay [2] is myc-tagged D762R/D764R (MRGR) USP7. As to the kind of experiment: Co-immunoprecipitation with myc-tagged D762R/D764R (MRGR) USP7 from 293T cells. It is filed as cell-based, human. As to conditions: anti-myc IP; for binding relative to recovery with WT USP7: D762R/D764R mutant, endogenous protein, multiple experiments, Fig 5B; for recovery with D762R/D764R USP7 (co-IP), in words: Western blot, Fig 5. The protocol:
as §3
Protein samples were subjected to SDS-PAGE and transferred to nitrocellulose. Membranes were blocked in 5% skim milk in Tris-buffered saline with 1% Tween (TBS-T) and then incubated with antibodies against ICP0 (H1A027 from Virusys Corporation; 1:5000 dilution), myc (sc-40 from Santa Cruz Biotechnology; 1:5000 dilution), NP95/UHRF1 (A301-470A from Bethyl Laboratories; 1:1000 dilution), GMPS (rabbit serum raised against full-length GMPS [17]; 1:5000 dilution) and actin (MA5-15739 from Pierce; 1:20,000 dilution). After washing, blots were probed with goat anti-mouse or goat anti-rabbit peroxidase (Santa Cruz Biotechnology; 1:5000 dilution) and developed using chemiluminescence reagents (Santa Cruz biotechnology).
293T cells transfected as described above were washed in phosphate-buffered saline (PBS) and lysed on ice for 45 min in a 4x volume of RIPA buffer (50 mM Tris-HCl [pH 8], 150 mM NaCl, 0.1% sodium deoxycholate, 0.5% NP-40) with complete protease inhibitors (Sigma P8340), followed by centrifugation. 1 mg of each clarified lysate was incubated with 1 μg of anti-myc antibody for 1h, followed by incubation with 30 μl of A/G PLUS agarose resin (Santa Cruz Biotechnology) for 2 h at 4°C with end-over-end rotation. The resin was harvested by centrifugation, washed in RIPA buffer, and then boiled in SDS loading buffer. Immunoprecipitated proteins were separated by SDS-PAGE and analyzed by Western blotting, as described above.

A further assay addresses T2, USP7 Ubl123 (Homo sapiens, UniProt Q93009).
T2 construct: Ubl123 (535–889); His tag (inferred from nickel-NTA purification; vector p15TV-L); made in house; host or cells: E. coli BL21(DE3)mgk
As to the kind of experiment: GST pull-down, Ubl123. The assay is classed as binding. Particulars: mutations within ICP0 615–629, Fig 3D. The method, then:
as §1, §2

No end group written: not given here.

T1 sequence (Q93009 535-1102): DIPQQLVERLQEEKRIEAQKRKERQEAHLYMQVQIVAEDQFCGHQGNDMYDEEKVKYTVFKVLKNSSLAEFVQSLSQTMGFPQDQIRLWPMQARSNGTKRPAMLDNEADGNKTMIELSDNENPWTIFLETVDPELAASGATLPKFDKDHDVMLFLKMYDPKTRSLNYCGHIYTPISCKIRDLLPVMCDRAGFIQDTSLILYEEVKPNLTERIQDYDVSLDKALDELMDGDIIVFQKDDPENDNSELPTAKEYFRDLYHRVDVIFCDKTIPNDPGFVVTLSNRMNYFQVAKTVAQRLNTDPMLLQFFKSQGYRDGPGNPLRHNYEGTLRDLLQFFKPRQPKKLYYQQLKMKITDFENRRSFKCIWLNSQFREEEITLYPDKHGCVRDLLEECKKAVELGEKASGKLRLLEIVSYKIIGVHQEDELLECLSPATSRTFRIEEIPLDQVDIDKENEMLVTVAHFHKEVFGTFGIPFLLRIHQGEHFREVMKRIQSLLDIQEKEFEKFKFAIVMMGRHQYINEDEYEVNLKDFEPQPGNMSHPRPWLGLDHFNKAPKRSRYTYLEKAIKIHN
T2 sequence (Q93009 535-889): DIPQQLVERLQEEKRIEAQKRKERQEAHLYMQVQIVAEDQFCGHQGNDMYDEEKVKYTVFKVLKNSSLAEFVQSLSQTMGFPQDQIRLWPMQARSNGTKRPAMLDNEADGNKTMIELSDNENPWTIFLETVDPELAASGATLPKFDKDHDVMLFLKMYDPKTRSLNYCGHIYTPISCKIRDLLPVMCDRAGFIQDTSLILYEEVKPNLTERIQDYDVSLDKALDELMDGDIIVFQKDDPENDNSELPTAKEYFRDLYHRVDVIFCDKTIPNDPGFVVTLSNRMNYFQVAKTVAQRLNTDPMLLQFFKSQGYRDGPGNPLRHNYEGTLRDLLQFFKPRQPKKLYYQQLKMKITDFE

As for “AASGPRGPRKCARKT [ICP0 611–625, GST-ICP0 fusion of ICP0 residues 611–625]”, the “Interaction with USP7-CTD (overlapping GST-ICP0 peptides)” value at USP7-CTD is “interacted with FL-USP7 and USP7-CTD but not to the same extent”. The “Interaction with USP7-FL (overlapping GST-ICP0 peptides)” value in the assay with FL-USP7 is “interacted with FL-USP7 and USP7-CTD but not to the same extent”. As to “DRTPRKRISKTLN [GST-GMPS peptide, GST fusion of GMPS residues 316–328]”, in the assay on USP7-CTD mutant D764A, the “Binding to USP7-CTD mutant D764A” value is on record as “disrupted binding”. Also, the “Binding to WT USP7-CTD” value on USP7-CTD (GST pull-down, GST-ICP0 594–775, GST-GMPS and GST-UHRF1 peptides and mutants, Fig 3H, 4C-F) was “interacted with USP7-CTD”. The “Binding to USP7-CTD mutant D762A/D764A” value in assay [1] is listed as “disrupted binding”. Also, the “Binding to USP7-CTD mutant D762A” value in the assay on USP7-CTD mutant D762A was “disrupted binding”. Consider “GMPS: endogenous GMP synthase in 293T cells”, for which, in the assay with myc-tagged WT USP7, the “recovery with WT USP7 (co-IP)” value is recorded as “efficiently recovered”. Further, in assay [2], the “binding relative to recovery with WT USP7” value is 35% (± 16%) and the “recovery with D762R/D764R USP7 (co-IP), in words” value is on record as “significantly decreased”. “K620A (PRGPRACARKTRHAE; also: GST fusion partner not in chain)”: the “Binding of mutant GST-ICP0 peptides to Ubl123” value (“Binding … to Ubl123” for short) with USP7 Ubl123 is listed as “lacked detectable binding”. Same read-out and setting: for “K620A/K624A (PRGPRACARATRHAE; also: GST fusion partner not in chain)” the value was “lacked detectable binding”; for “K624A (PRGPRKCARATRHAE; also: GST fusion partner not in chain)”, “lacked detectable binding”; for “R619A/K620A (PRGPAACARKTRHAE; also: GST fusion partner not in chain)”, “lacked detectable binding”. Turning to “R623A/K624A (PRGPRKCAAATRHAE; also: GST fusion partner not in chain)”, the “Binding … to Ubl123” value with USP7 Ubl123 is “lacked detectable binding”. As to “RKCARKTRHAETSGA [ICP0 619–633, GST-ICP0 fusion of ICP0 residues 619–633]”, the “Interaction with USP7-CTD (overlapping GST-ICP0 peptides)” value at USP7-CTD is reported as “strongest interaction”. Further, the “Interaction with USP7-FL (overlapping GST-ICP0 peptides)” value in the assay with FL-USP7 is “strongest interaction”.

For the substance RRKK, the “Binding … to Ubl123” value at USP7 Ubl123 is given as “lacked detectable binding”. On to “UHRF1: endogenous epigenetic regulator UHRF1 in 293T cells, an E3 ligase”, for which, in the assay on myc-tagged WT USP7, the “recovery with WT USP7 (co-IP)” value is “efficiently recovered”. Also, in assay [2], the “binding relative to recovery with WT USP7” value is 21% (± 6%) and the “recovery with D762R/D764R USP7 (co-IP), in words” value is on record as “significantly decreased”.
